US20070167631A1, “Novel herbicides” (priority 2003, published 2007)

Key:
Format in all cases: in vivo
Maize [1] = assay: Comparison test with prior art compound A, post-emergence herbicidal action (Example B4); conditions: 125 g/ha, crop plant, rating scale 10=total damage, 0=no action
From the text: (§1) The post-emergence herbicidal action of compound no. 1.095 according to the invention was compared with compound A, which is described as compound no.

Sida = assay: as above; conditions: 125 g/ha, rating scale 10=total damage, 0=no action
From the text: as §1

Sinapis = assay: as above; conditions: 125 g/ha, rating scale 10=total damage, 0=no action
From the text: as §1

Stellaria [2] = assay: as above; conditions: 125 g/ha, rating scale 10=total damage, 0=no action
From the text: as §1

Wheat [3] = assay: as above; conditions: 125 g/ha, crop plant, rating scale 10=total damage, 0=no action
From the text: as §1

Galium = assay: Comparison test with prior art compound B, post-emergence herbicidal action (Example B5); conditions: 125 g/ha, rating scale 10=total damage, 0=no action
From the text: (§2) The post-emergence herbicidal action of compound no. 1.096 according to the invention was compared with compound B, which is described as compound no. 2.088 on page 83,

Ipomea = assay: as above; conditions: 125 g/ha, rating scale 10=total damage, 0=no action
From the text: as §2

Maize [4] = assay: as above; conditions: 125 g/ha
From the text: as §2

Polygonum = assay: as above; conditions: 125 g/ha, rating scale 10=total damage, 0=no action
From the text: as §2

Stellaria [5] = assay: as above; conditions: 125 g/ha, rating scale 10=total damage, 0=no action
From the text: as §2

Wheat [6] = assay: as above; conditions: 125 g/ha
From the text: as §2

Abutilon = assay: Pre-emergence herbicidal action (Example B1); conditions: 250 g/ha, after 4 weeks, rating scale 10=total damage, 0=no action
Method: (§3) Monocotyledonous and dicotyledonous test plants are sown in standard soil in pots or seed trays. Immediately after sowing, the test compounds, in the form of an aqueous suspension (prepared from a wettable powder (Example F3, b) according to WO 97/34485) or in the form of an emulsion (prepared from an emulsifiable concentrate (Example F1, c) according to WO 97/34485), are applied by spraying in a concentration of 250 g/ha. The test plants are then grown in a greenhouse under optimum conditions. After a test duration of 4 weeks, the test is evaluated in accordance with a scale of eleven ratings (10=total damage, 0=no action). Ratings of from 10 to 7 (especially from 10 to 8) indicate very good to good herbicidal action.

Amaranthus [7] = assay: Pre-emergence herbicidal action (Example B1); conditions: 250 g/ha, after 4 weeks, rating scale 10=total damage, 0=no action
Method: as §3

Chenopodium [8] = assay: Pre-emergence herbicidal action (Example B1); conditions: 250 g/ha, after 4 weeks, rating scale 10=total damage, 0=no action
Method: as §3

Digitaria = assay: Pre-emergence herbicidal action (Example B1); conditions: 250 g/ha, after 4 weeks, rating scale 10=total damage, 0=no action
Method: as §3

Echinochloa [9] = assay: Pre-emergence herbicidal action (Example B1); conditions: 250 g/ha, after 4 weeks, rating scale 10=total damage, 0=no action
Method: as §3

Panicum [10] = assay: Pre-emergence herbicidal action (Example B1); conditions: 250 g/ha, after 4 weeks, rating scale 10=total damage, 0=no action
Method: as §3

Scirpus = assay: Pre-emergence herbicidal action (Example B1); conditions: 250 g/ha, after 4 weeks, rating scale 10=total damage, 0=no action
Method: as §3

Amaranthus [11] = assay: Post-emergence herbicidal action (Example B2); conditions: 250 g/ha, after about 18 days, rating scale 10=total damage, 0=no action
Method in brief: (§4)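 Foliar spray, two doses (125, 250 g a.i./ha), WP suspension or EC emulsion, each 25% formulations; greenhouse plants at 4–6 leaves; readout ~18 days post-treatment as 11-step damage score where 10 means plants fully destroyed.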

Chenopodium [12] = assay: Post-emergence herbicidal action (Example B2); conditions: 250 g/ha, after about 18 days, rating scale 10=total damage, 0=no action
Method in brief: as §4

Echinochloa [13] = assay: Post-emergence herbicidal action (Example B2); conditions: 250 g/ha, after about 18 days, rating scale 10=total damage, 0=no action
Method in brief: as §4

Euphorbia = assay: Post-emergence herbicidal action (Example B2); conditions: 250 g/ha, after about 18 days, rating scale 10=total damage, 0=no action
Method in brief: as §4

Panicum [14] = assay: Post-emergence herbicidal action (Example B2); conditions: 250 g/ha, after about 18 days, rating scale 10=total damage, 0=no action
Method in brief: as §4

Stellaria [15] = assay: Post-emergence herbicidal action (Example B2); conditions: 250 g/ha, after about 18 days, rating scale 10=total damage, 0=no action
Method in brief: as §4

Xanthium = assay: Post-emergence herbicidal action (Example B2); conditions: 250 g/ha, after about 18 days, rating scale 10=total damage, 0=no action
Method in brief: as §4

[16] = crop plant, rating scale 10=total damage, 0=no action

SMILES	Pre-emergence action: Abutilon (Abutilon)	Pre-emergence action: Amaranthus (Amaranthus [7])	Pre-emergence action: Chenopodium (Chenopodium [8])	Pre-emergence action: Digitaria (Digitaria)	Pre-emergence action: Echinochloa (Echinochloa [9])	Pre-emergence action: Panicum (Panicum [10])	Pre-emergence action: Scirpus (Scirpus)	Post-emergence action: Amaranthus (Amaranthus [11])	Post-emergence action: Chenopodium (Chenopodium [12])	Post-emergence action: Echinochloa (Echinochloa [13])	Post-emergence action: Euphorbia (Euphorbia)	Post-emergence action: Panicum (Panicum [14])	Post-emergence action: Stellaria (Stellaria [15])	Post-emergence action: Xanthium (Xanthium)	also measured
O=C1CCCC(O)=C1C(=O)c1ncc(C(F)(F)F)cc1Cl [A, reference compound]	–	–	–	–	–	–	–	–	–	–	–	–	–	–	Post-emergence herbicidal action: Maize (Maize [1]): 0; Post-emergence herbicidal action: Sida (Sida): 2; Post-emergence herbicidal action: Sinapis (Sinapis): 6; Post-emergence herbicidal action: Stellaria (Stellaria [2]): 9; Post-emergence herbicidal action: Wheat (Wheat [3]): 0
COc1nc(C(=O)C2=C(O)C3CCC(C3)C2=O)ccc1C(F)(F)F (stereo not drawn) [B, reference compound]	–	–	–	–	–	–	–	–	–	–	–	–	–	–	Post-emergence herbicidal action: Galium (Galium): 4; Post-emergence herbicidal action: Ipomea (Ipomea): 6; Post-emergence herbicidal action: Maize (Maize [4]; [16]): 2; phytotoxicity to maize (Maize [4]; post-emergence): 20%; Post-emergence herbicidal action: Polygonum (Polygonum): 4; Post-emergence herbicidal action: Stellaria (Stellaria [5]): 6; Post-emergence herbicidal action: Wheat (Wheat [6]; [16]): 2; phytotoxicity to wheat (Wheat [6]; post-emergence): 20%
CC1(C)C(=O)C(C(=O)c2ccc(C(F)(F)F)c(N3CCSCC3)n2)=C(O)C(C)(C)C1=O [Compound 2.078]	10	8	10	10	10	10	0	7	10	8	7	5	10	7	–
CC1(C)C(=O)C(C(=O)c2ccc(C(F)(F)F)c(C3(C)OCCO3)n2)=C(O)C(C)(C)C1=O [Compound 2.191]	10	7	9	7	10	10	3	3	7	8	8	9	10	8	–
Cc1nc(C(=O)C2=C(O)C(C)(C)C(=O)C(C)(C)C2=O)ccc1C#N [Compound 2.209]	10	9	9	8	10	10	2	8	6	8	8	9	10	9	–
CC1CC(=O)C(C(=O)c2ccc(C(F)(F)F)c(N3CCOCC3)n2)=C(O)C1 (stereo not drawn) [Compound 3.069]	10	10	6	10	10	10	5	8	10	7	5	8	7	8	–
CC1CCC(O)=C(C(=O)c2ccc(C(F)(F)F)c(N3CCOCC3)n2)C1=O (stereo not drawn) [Compound 3.071]	9	8	6	10	10	10	8	8	10	8	7	9	8	8	–
CC1(C)CCC(O)=C(C(=O)c2ccc(C(F)(F)F)c(N3CCOCC3)n2)C1=O [Compound 3.072]	9	3	8	10	10	9	7	7	9	7	7	8	8	8	–
CC1CC(O)=C(C(=O)c2ccc(C(F)(F)F)c(N3CCOCC3)n2)C(=O)C1(C)C (stereo not drawn) [Compound 3.073]	5	0	7	9	7	10	7	4	9	8	7	7	7	7	–
